Source: patent US8586588B2, “Aryl pyridazinone derivatives and their use as H3 receptor ligands” (Cephalon, Inc., priority 2006, dated 2013)

Experiments:
[1] = molecular target: T1, rat histamine H3 receptor (Rattus norvegicus, UniProt Q9QYN8); test: Rat H3 radioligand binding ([3H]-N-alpha-methylhistamine, CHO-A3 cell membranes, SPA); settings: Table B, binding constant as letter class; read-out: rat H3 Ki
T1 construct: encoding the entire 445-amino-acid rat histamine H3 receptor; expressed in transfected cells
T1 sequence (Q9QYN8 whole entry): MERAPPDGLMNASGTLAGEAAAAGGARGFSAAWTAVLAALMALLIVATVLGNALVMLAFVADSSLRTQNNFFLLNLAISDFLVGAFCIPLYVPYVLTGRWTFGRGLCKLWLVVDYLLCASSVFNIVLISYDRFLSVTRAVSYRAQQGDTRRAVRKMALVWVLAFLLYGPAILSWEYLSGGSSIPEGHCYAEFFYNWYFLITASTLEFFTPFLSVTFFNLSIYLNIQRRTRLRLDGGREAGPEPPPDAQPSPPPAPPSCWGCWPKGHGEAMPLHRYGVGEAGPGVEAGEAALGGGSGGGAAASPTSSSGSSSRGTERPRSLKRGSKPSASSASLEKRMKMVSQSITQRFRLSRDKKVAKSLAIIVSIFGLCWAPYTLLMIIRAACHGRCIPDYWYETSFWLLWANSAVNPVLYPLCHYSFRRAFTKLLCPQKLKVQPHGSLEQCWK
Summary of the method: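 Scintillation proximity displacement of about 1 nM [3H]-N-alpha-methylhistamine, test compound 0.01 nM-30 μM, 4 h, room temperature, in the dark. Receptor source: rat H3 stably transfected into CHO-A3 cells, 10 μg membrane protein, Tris-HCl pH 7.4/MgCl2/BSA buffer. Nonspecific binding defined by 10 μM clobenpropit.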

human H3 receptor = molecular target: T2, human H3 receptor (Homo sapiens, UniProt Q9Y5N1); test: Human H3 radioligand binding ([3H]-N-alpha-methylhistamine, CHO cell membranes, SPA); settings: Table B, binding constant as letter class
T2 construct: expressed in transfected cells
T2 sequence (Q9Y5N1 whole entry): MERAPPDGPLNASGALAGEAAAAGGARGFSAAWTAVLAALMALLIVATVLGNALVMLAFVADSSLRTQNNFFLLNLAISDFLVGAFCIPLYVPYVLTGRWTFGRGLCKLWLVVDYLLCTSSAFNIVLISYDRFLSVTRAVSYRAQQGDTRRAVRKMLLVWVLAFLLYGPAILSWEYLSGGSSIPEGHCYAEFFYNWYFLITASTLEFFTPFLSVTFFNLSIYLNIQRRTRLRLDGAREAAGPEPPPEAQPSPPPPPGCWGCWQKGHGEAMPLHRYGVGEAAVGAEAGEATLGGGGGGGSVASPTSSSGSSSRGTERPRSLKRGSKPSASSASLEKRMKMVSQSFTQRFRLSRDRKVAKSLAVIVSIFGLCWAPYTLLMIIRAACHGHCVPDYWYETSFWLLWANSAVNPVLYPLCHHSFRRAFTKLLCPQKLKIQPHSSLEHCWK
Summary of the method: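 Scintillation proximity format: bead-proximal [3H]-N-alpha-methylhistamine (approximately 1 nM final) bound to human H3 receptor in CHO membranes was counted after 4 h at room temperature, light-protected. Buffer was pH 7.4 Tris/MgCl2/BSA; test compounds spanned 0.01 nM-30 μM; 10 μM clobenpropit set non-specific binding.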

| Ki [1] [nM] | melting point | Ki (human H3 receptor) [nM] | Compound |
| --- | --- | --- | --- |
| 101 to 500 | > 200 °C (dec.) | 0.1 to 100 | C[C@@H]1CCCN1CCCOc1ccc(-c2ccc(=O)[nH]n2)cc1C#N [Example 129, 2-[3-((R)-2-Methyl-pyrrolidin-1-yl)-propoxy]-5-(6-oxo-1,6-dihydro-pyridazin-3-yl)-benzonitrile] |
| 101 to 500 | 207 to 209 °C | 101 to 500 | N#Cc1cc(-c2ccc(=O)[nH]n2)ccc1OCCCN1CCCCC1 [Example 130, 2-[3-(piperidin-1-yl)-propoxy]-5-(6-oxo-1,6-dihydro-pyridazin-3-yl)-benzonitrile] |
| 0.1 to 100 | 95 to 98 °C | 0.1 to 100 | C[C@@H]1CCCN1CCCOc1ccc(-c2ccc(=O)n(CCO)n2)cc1 [Example 131, 2-(2-Hydroxy-ethyl)-6-{4-[3-((R)-2-methyl-pyrrolidin-1-yl)-propoxy]-phenyl}-2H-pyridazin-3-one] |
| 0.1 to 100 | 163 to 167 °C | 0.1 to 100 | C[C@H](COc1ccc(-c2ccc(=O)[nH]n2)cc1)CN1CCC[C@H]1C [Example 132] |
| 0.1 to 100 | 134 °C (dec.) | 0.1 to 100 | O=c1[nH]nc(-c2ccc(OCCCN3CCCCC3)cc2)c2c1CCC2 [Example 133, 4-[4-(3-Piperidin-1-yl-propoxy)-phenyl]-2,5,6,7-tetrahydro-cyclopenta[d]pyridazin-1-one] |
| 0.1 to 100 | 186 °C (dec.) | 0.1 to 100 | O=c1ccc(-c2ccc(OCCCN3CCCCC3)cc2)n[nH]1 [Example 134, 6-[4-(3-Piperidin-1-yl-propoxy)-phenyl]-2H-pyridazin-3-one] |
| 101 to 500 | 175 °C (dec.) | 101 to 500 | COc1cc(-c2ccc(=O)[nH]n2)ccc1OCCCN1CCCCC1 [Example 135, 6-[3-Methoxy-4-(3-piperidin-1-yl-propoxy)-phenyl]-2H-pyridazin-3-one] |
| 101 to 500 | 148 °C (dec.) | 0.1 to 100 | COc1cc(-c2ccc(=O)[nH]n2)ccc1OCCCN1CCC[C@H]1C [Example 136, 6-{3-Methoxy-4-[3-((R)-2-methyl-pyrrolidin-1-yl)-propoxy]-phenyl}-2H-pyridazin-3-one] |
| 0.1 to 100 | 114 °C (dec.) | 0.1 to 100 | Cc1cc(OCCCN2CCCCC2)ccc1-c1ccc(=O)[nH]n1 [Example 137, 6-[2-Methyl-4-(3-piperidin-1-yl-propoxy)-phenyl]-2H-pyridazin-3-one] |
| 501 to 1000 | 188 to 191 °C | 101 to 500 | CC(C)N1CCC(COc2ccc(-c3ccc(=O)[nH]n3)cn2)CC1 [Example 140, 6-[6-(1-Isopropyl-piperidin-4-ylmethoxy)-pyridin-3-yl]-2H-pyridazin-3-one] |
| 0.1 to 100 | 217 to 219 °C | 0.1 to 100 | O=c1ccc(-c2ccc(OC3CCN(C4CCC4)CC3)nc2)n[nH]1 [Example 141, 6-[6-(1-Cyclobutyl-piperidin-4-yloxy)-pyridin-3-yl]-2H-pyridazin-3-one] |
| 101 to 500 | 195 to 197 °C | 0.1 to 100 | CC(C)N1CCC(Oc2ccc(-c3ccc(=O)[nH]n3)cn2)CC1 [Example 142, 6-[6-(1-Isopropyl-piperidin-4-yloxy)-pyridin-3-yl]-2H-pyridazin-3-one] |
| 0.1 to 100 | 113 to 115 °C | 0.1 to 100 | CC(C)n1nc(-c2ccc(OC3CCN(C4CCC4)CC3)nc2)ccc1=O [Example 145, 6-[6-(1-Cyclobutyl-piperidin-4-yloxy)-pyridin-3-yl]-2-isopropyl-2H-pyridazin-3-one] |
| 0.1 to 100 | 178 to 181 °C | 0.1 to 100 | C[C@@H]1CCCN1CCCOc1ccc(-c2ccc(=O)[nH]n2)cn1 [Example 146, 6-{6-[3-((R)-2-Methyl-pyrrolidin-1-yl)-propoxy]-pyridin-3-yl}-2H-pyridazin-3-one] |
| 101 to 500 | 155 to 158 °C | 0.1 to 100 | O=c1ccc(-c2ccc(OCCCN3CCCCC3)nc2)n[nH]1 [Example 147, 6-[6-(3-Piperidin-1-yl-propoxy)-pyridin-3-yl]-2H-pyridazin-3-one] |
| 0.1 to 100 | 196 to 198 °C | 0.1 to 100 | O=C1CCC(c2ccc(OC3CCN(C4CCC4)CC3)cc2)=NN1 [Example 150, 6-[4-(1-Cyclobutyl-piperidin-4-yloxy)-phenyl]-4,5-dihydro-2H-pyridazin-3-one] |

| Ki [1] [nM] | melting point | Ki (human H3 receptor) [nM] | Compound |
| --- | --- | --- | --- |
| 0.1 to 100 | 195 to 197 °C | 0.1 to 100 | O=C1CCC(c2ccc(OC3CCN(C4CCC4)CC3)c(F)c2)=NN1 [Example 151, 6-[4-(1-Cyclobutyl-piperidin-4-yloxy)-3-fluoro-phenyl]-4,5-dihydro-2H-pyridazin-3-one] |
| 0.1 to 100 | 157 to 158 °C | 0.1 to 100 | CC1(C)CC(c2ccc(OC3CCN(C4CCC4)CC3)cc2)=NNC1=O [Example 152, 6-[4-(1-Cyclobutyl-piperidin-4-yloxy)-phenyl]-4,4-dimethyl-4,5-dihydro-2H-pyridazin-3-one] |
| 0.1 to 100 | 147 to 149 °C | 0.1 to 100 | CC1(C)CC(c2ccc(OC3CCN(C4CCC4)CC3)c(F)c2)=NNC1=O [Example 153, 6-[4-(1-Cyclobutyl-piperidin-4-yloxy)-3-fluoro-phenyl]-4,4-dimethyl-4,5-dihydro-2H-pyridazin-3-one] |
| 0.1 to 100 | 211 to 213 °C | 0.1 to 100 | O=c1ccc(-c2ccc(OC3CCN(C4CCCC4)CC3)cc2)n[nH]1 [Example 154, 6-[4-(1-Cyclopentyl-piperidin-4-yloxy)-phenyl]-2H-pyridazin-3-one] |
| 0.1 to 100 | 215 to 220 °C | 0.1 to 100 | O=c1ccc(-c2ccc(OC3CCN(C4CCC4)CC3)cc2)n[nH]1 [Example 155, 6-[4-(1-Cyclobutyl-piperidin-4-yloxy)-phenyl]-2H-pyridazin-3-one] |
| 0.1 to 100 | 236 to 238 °C | 0.1 to 100 | O=c1ccc(-c2ccc(OC3CCN(C4CCC4)CC3)c(F)c2)n[nH]1 [Example 156, 6-[4-(1-Cyclobutyl-piperidin-4-yloxy)-3-fluoro-phenyl]-2H-pyridazin-3-one] |
| > 1000 | 184 to 186 °C | > 1000 | O=C1CCC(c2ccc(O[C@@H]3CCN(C4CCCCC4)C3)cc2)=NN1 [Example 159, 6-[4-((R)-1-Cyclohexyl-pyrrolidin-3-yloxy)-phenyl]-4,5-dihydro-2H-pyridazin-3-one] |
| 101 to 500 | 200 to 202 °C | 101 to 500 | O=c1ccc(-c2ccc(O[C@@H]3CCN(C4CCCCC4)C3)cc2)n[nH]1 [Example 160, 6-[4-((R)-1-Cyclohexyl-pyrrolidin-3-yloxy)-phenyl]-2H-pyridazin-3-one] |
| 0.1 to 100 | 120 to 123 °C | 0.1 to 100 | O=C1CCC(c2ccc(OC3CCN(C4CCC4)CC3)cc2)=NN1C1CCC1 [Example 163, 2-Cyclobutyl-6-[4-(1-cyclobutyl-piperidin-4-yloxy)-phenyl]-4,5-dihydro-2H-pyridazin-3-one] |
| 0.1 to 100 | 100 to 104 °C | 0.1 to 100 | O=C1CCC(c2ccc(OC3CCN(C4CCCC4)CC3)cc2)=NN1C1CCC1 [Example 164, 2-Cyclobutyl-6-[4-(1-cyclopentyl-piperidin-4-yloxy)-phenyl]-4,5-dihydro-2H-pyridazin-3-one] |
| > 1000 | 168 to 170 °C | > 1000 | O=C1CCC(c2ccc(OC3CCNCC3)cc2)=NN1C1CCC1 [Example 165, 2-Cyclobutyl-6-[4-(piperidin-4-yloxy)-phenyl]-4,5-dihydro-2H-pyridazin-3-one] |
| 0.1 to 100 | 146 to 147 °C | 0.1 to 100 | O=C1CCC(c2ccc(OC3CCN(C4CCC4)CC3)cc2)=NN1CC(F)(F)F [Example 166, 6-[4-(1-Cyclobutyl-piperidin-4-yloxy)-phenyl]-2-(2,2,2-trifluoro-ethyl)-4,5-dihydro-2H-pyridazin-3-one] |
| 0.1 to 100 | 225 to 227 °C | 0.1 to 100 | O=C1CCC(c2ccc(OC3CCN(C4CCCC4)CC3)cc2)=NN1CC(F)(F)F [Example 167, 6-[4-(1-Cyclopentyl-piperidin-4-yloxy)-phenyl]-2-(2,2,2-trifluoro-ethyl)-4,5-dihydro-2H-pyridazin-3-one] |
| 0.1 to 100 | 76 to 78 °C | 0.1 to 100 | C[C@@H]1CCCN1CCCOc1ccc(C2=NN(CC(F)(F)F)C(=O)CC2)cc1 [Example 168, 6-{4-[3-((R)-2-Methyl-pyrrolidin-1-yl)-propoxy]-phenyl}-2-(2,2,2-trifluoro-ethyl)-4,5-dihydro-2H-pyridazin-3-one] |
| 0.1 to 100 | 87 to 89 °C | 0.1 to 100 | O=C1CCC(c2ccc(OCCCN3CCCCC3)cc2)=NN1CC(F)(F)F [Example 169, 6-{4-[3-piperidin-1-yl-propoxy]-phenyl}-2-(2,2,2-trifluoro-ethyl)-4,5-dihydro-2H-pyridazin-3-one] |
| 0.1 to 100 | 121 to 123 °C | 0.1 to 100 | C[C@@H]1CCCN1CCCOc1ccc(-c2ccc(=O)n(CC(F)(F)F)n2)cc1 [Example 170, 6-{4-[3-((R)-2-Methyl-pyrrolidin-1-yl)-propoxy]-phenyl}-2-(2,2,2-trifluoro-ethyl)-2H-pyridazin-3-one] |
